{"source": "ChEMBL document CHEMBL5257032", "about": "“Therapeutic potential of coumarins as antiviral agents” (Eur J Med Chem, 2016)", "test_system": "Influenza A virus", "test": "Antiviral activity against Oseltamivir-resistant Influenza A virus", "assay_type": "functional, organism-based"}
{"smiles": "Cc1cc(=O)oc2c1ccc1oc(C(=O)c3ccccc3)c(-c3ccccc3)c12", "values": [{"measurement": "EC50", "result": 21, "unit": "nM"}]}
